According to US8546375B2, “(3-(4-(aminomethyl)phenoxy or phenylthio)azetidin-1-yl)(5-phenyl-1,3,4-oxadiazol-2-yl)methanone compounds” (AstraZeneca AB, priority 2010, dated 2013):
Structures can show the parent of a compound that is named as a salt. Where two headings read alike, the source gives them in different places.

Molecular target: T1, Melanin Concentrating Hormone Receptor 1 (MCHR1) (Homo sapiens, UniProt Q99705)
T1 construct: expressed in transfected cells
Assay: MCHR1 Receptor Activation Assay (GTPγ^35S)
Assay type: biochemical

T1 sequence (Q99705 whole entry): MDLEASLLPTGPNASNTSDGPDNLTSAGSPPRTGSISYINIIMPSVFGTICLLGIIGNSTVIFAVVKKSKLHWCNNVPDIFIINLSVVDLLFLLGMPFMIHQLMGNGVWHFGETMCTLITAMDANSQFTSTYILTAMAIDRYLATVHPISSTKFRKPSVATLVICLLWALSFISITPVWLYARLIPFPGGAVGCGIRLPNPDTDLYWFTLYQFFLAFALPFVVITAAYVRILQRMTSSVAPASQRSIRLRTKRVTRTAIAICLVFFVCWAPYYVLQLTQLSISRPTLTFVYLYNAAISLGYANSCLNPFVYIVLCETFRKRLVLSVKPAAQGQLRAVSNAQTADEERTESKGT

Row | SMILES | IC50 (read-out: GTPγ^35S IC50) [nM] | IC50 (when tested in the above referenced assays (MCH binding assay; MCHR1 receptor activation assay), read-out: IC50 value) [nM]
1 | COCCN(C)Cc1ccc(SC2CN(C(=O)c3nnc(-c4ccccc4)o3)C2)cc1 [Example 61, (3-(4-(((2-Methoxyethyl)(methyl)amino)methyl)phenylthio)azetidin-1-yl)(5-phenyl-1,3,4-oxadiazol-2-yl)methanone hydrochloride] | 22 | –
2 | COC1CN(Cc2ccc(SC3CN(C(=O)c4nnc(-c5ccccc5)o4)C3)cc2)C1 [Example 62, (3-(4-((3-Methoxyazetidin-1-yl)methyl)phenylthio)azetidin-1-yl)(5-phenyl-1,3,4-oxadiazol-2-yl)methanone] | 13 | –
3 | CNCc1ccc(SC2CN(C(=O)c3nnc(-c4ccccc4)o3)C2)cc1 [Example 63, (3-(4-((Methylamino)methyl)phenylthio)azetidin-1-yl)(5-phenyl-1,3,4-oxadiazol-2-yl)methanone hydrochloride] | 23 | –
4 | CN(Cc1ccc(SC2CN(C(=O)c3nnc(-c4ccccc4)o3)C2)cc1)C1CCOCC1 [Example 64] | 12 | –
5 | CN(Cc1ccc(SC2CN(C(=O)c3nnc(-c4ccccc4)o3)C2)cc1)CC1CCOC1 (stereo not drawn) [Example 65, (3-(4-((Methyl((tetrahydrofuran-3-yl)methyl)amino)methyl)phenylthio)azetidin-1-yl)(5-phenyl-1,3,4-oxadiazol-2-yl)methanone] | 20 | –
6 | O=C(c1nnc(-c2ccccc2)o1)N1CC(Sc2ccc(CNC3CC3)cc2)C1 [Example 66, (3-(4-((Cyclopropylamino)methyl)phenylthio)azetidin-1-yl)(5-phenyl-1,3,4-oxadiazol-2-yl)methanone] | 10 | –
7 | O=C(c1nnc(-c2ccccc2)o1)N1CC(Sc2ccc(CN3CC(CO)C3)cc2)C1 [Example 67, (3-(4-((3-(Hydroxymethyl)azetidin-1-yl)methyl)phenylthio)azetidin-1-yl)(5-phenyl-1,3,4-oxadiazol-2-yl)methanone] | 23 | –
8 | O=C(c1nnc(-c2ccccc2)o1)N1CC(Oc2ccc(CN3CC(C(F)F)C3)cc2)C1 [Example 68, (3-(4-((3-(Difluoromethyl)azetidin-1-yl)methyl)phenoxy)azetidin-1-yl)(5-phenyl-1,3,4-oxadiazol-2-yl)methanone] | 21 | –
9 | Cc1cc(OC2CN(C(=O)c3nnc(-c4ccccc4)o3)C2)ccc1CN1CCC(C)(CO)CC1 [Example 69] | 22 | –
10 | CCC1(O)CN(Cc2ccc(OC3CN(C(=O)c4nnc(-c5ccc(OC)cc5)o4)C3)cc2)C1 [Example 70, (3-(4-((3-Ethyl-3-hydroxyazetidin-1-yl)methyl)phenoxy)azetidin-1-yl)(5-(4-methoxyphenyl)-1,3,4-oxadiazol-2-yl)methanone] | 20 | –
11 | CCC1(O)CN(Cc2ccc(OC3CN(C(=O)c4nnc(-c5ccccc5)o4)C3)cc2)C1 [Example 71, (3-(4-((3-Ethyl-3-hydroxyazetidin-1-yl)methyl)phenoxy)azetidin-1-yl)(5-phenyl-1,3,4-oxadiazol-2-yl)methanone] | 23 | –
12 | CCC1(O)CN(Cc2ccc(OC3CN(C(=O)c4nnc(-c5ccc(OC)cc5)o4)C3)c(C)c2)C1 [Example 72, (3-(4-((3-Ethyl-3-hydroxyazetidin-1-yl)methyl)-2-methylphenoxy)azetidin-1-yl)(5-(4-methoxyphenyl)-1,3,4-oxadiazol-2-yl)methanone] | 15 | –
13 | CCC1(O)CN(Cc2ccc(OC3CN(C(=O)c4nnc(-c5ccc(OC)cc5)o4)C3)cc2C)C1 [Example 73, (3-(4-((3-Ethyl-3-hydroxyazetidin-1-yl)methyl)-3-methylphenoxy)azetidin-1-yl)(5-(4-methoxyphenyl)-1,3,4-oxadiazol-2-yl)methanone] | 14 | –
14 | CCC1(O)CN(Cc2ccc(OC3CN(C(=O)c4nnc(-c5ccccc5)o4)C3)c(C)c2)C1 [Example 74, (3-(4-((3-Ethyl-3-hydroxyazetidin-1-yl)methyl)-2-methylphenoxy)azetidin-1-yl)(5-phenyl-1,3,4-oxadiazol-2-yl)methanone] | 18 | –
15 | CCC1(O)CN(Cc2ccc(OC3CN(C(=O)c4nnc(-c5ccccc5)o4)C3)cc2C)C1 [Example 75, (3-(4-((3-Ethyl-3-hydroxyazetidin-1-yl)methyl)-3-methylphenoxy)azetidin-1-yl)(5-phenyl-1,3,4-oxadiazol-2-yl)methanone] | 17 | –
16 | COc1ccc(-c2nnc(C(=O)N3CC(Oc4ccc(CN5CC(C)(O)C5)cc4)C3)o2)cc1 [Example 76, (3-(4-((3-Hydroxy-3-methylazetidin-1-yl)methyl)phenoxy)azetidin-1-yl)(5-(4-methoxyphenyl)-1,3,4-oxadiazol-2-yl)methanone] | 23 | –
17 | CC1(O)CN(Cc2ccc(OC3CN(C(=O)c4nnc(-c5ccccc5)o4)C3)cc2)C1 [Example 77, (3-(4-((3-Hydroxy-3-methylazetidin-1-yl)methyl)phenoxy)azetidin-1-yl)(5-phenyl-1,3,4-oxadiazol-2-yl)methanone] | 40 | –

Row | SMILES | IC50 (read-out: GTPγ^35S IC50) [nM] | IC50 (when tested in the above referenced assays (MCH binding assay; MCHR1 receptor activation assay), read-out: IC50 value) [nM]
18 | CC1(O)CN(Cc2ccc(OC3CN(C(=O)c4nnc(-c5ccccc5)o4)C3)c(Cl)c2)C1 [Example 78, (3-(2-Chloro-4-((3-hydroxy-3-methylazetidin-1-yl)methyl)phenoxy)azetidin-1-yl)(5-phenyl-1,3,4-oxadiazol-2-yl)methanone] | 42 | –
19 | COc1ccc(-c2nnc(C(=O)N3CC(Oc4ccc(CN5CC(C)(O)C5)cc4Cl)C3)o2)cc1 [Example 79, (3-(2-Chloro-4-((3-hydroxy-3-methylazetidin-1-yl)methyl)phenoxy)azetidin-1-yl)(5-(4-methoxyphenyl)-1,3,4-oxadiazol-2-yl)methanone] | 34 | –
20 | COc1ccc(-c2nnc(C(=O)N3CC(Oc4ccc(CN5CC(C)(O)C5)c(C)c4)C3)o2)cc1 [Example 80, (3-(4-((3-Hydroxy-3-methylazetidin-1-yl)methyl)-3-methylphenoxy)azetidin-1-yl)(5-(4-methoxyphenyl)-1,3,4-oxadiazol-2-yl)methanone] | 23 | –
21 | COc1ccc(-c2nnc(C(=O)N3CC(Oc4ccc(CN5CCC(F)(CO)CC5)cc4)C3)o2)cc1 [Example 81, (3-(4-((4-Fluoro-4-(hydroxymethyl)piperidin-1-yl)methyl)phenoxy)azetidin-1-yl)(5-(4-methoxyphenyl)-1,3,4-oxadiazol-2-yl)methanone] | 25 | –
22 | COc1ccc(-c2nnc(C(=O)N3CC(Oc4ccc(CN5CCC(C)(CO)CC5)c(C)c4)C3)o2)cc1 [Example 82, (3-(4-((4-(Hydroxymethyl)-4-methylpiperidin-1-yl)methyl)-3-methylphenoxy)azetidin-1-yl)(5-(4-methoxyphenyl)-1,3,4-oxadiazol-2-yl)methanone] | 22 | –
23 | COc1ccc(-c2nnc(C(=O)N3CC(Oc4ccc(CN5CCC(C)(CO)CC5)cc4)C3)o2)cc1 [Example 83, (3-(4-((4-(Hydroxymethyl)-4-methylpiperidin-1-yl)methyl)phenoxy)azetidin-1-yl)(5-(4-methoxyphenyl)-1,3,4-oxadiazol-2-yl)methanone] | 25 | –
24 | COc1ccc(-c2nnc(C(=O)N3CC(Oc4ccc(CN5CCC(C)(CO)C5)cc4)C3)o2)cc1 (stereo not drawn) [Example 84, (3-(4-((3-(hydroxymethyl)-3-methylpyrrolidin-1-yl)methyl)phenoxy)azetidin-1-yl)(5-(4-methoxyphenyl)-1,3,4-oxadiazol-2-yl)methanone] | 17 | –
25 | CC1(CO)CCN(Cc2ccc(OC3CN(C(=O)c4nnc(-c5ccccc5)o4)C3)cc2)C1 (stereo not drawn) [Example 85, (3-(4-((3-(hydroxymethyl)-3-methylpyrrolidin-1-yl)methyl)phenoxy)azetidin-1-yl)(5-phenyl-1,3,4-oxadiazol-2-yl)methanone] | 19 | –
26 | COc1ccc(-c2nnc(C(=O)N3CC(Oc4ccc(CN5CCCC(O)CC5)cc4)C3)o2)cc1 (stereo not drawn) [Example 86, (3-(4-((4-hydroxyazepan-1-yl)methyl)phenoxy)azetidin-1-yl)(5-(4-methoxyphenyl)-1,3,4-oxadiazol-2-yl)methanone] | 15 | –
27 | CC1(O)CCCN(Cc2ccc(OC3CN(C(=O)c4nnc(-c5ccccc5)o4)C3)cc2)CC1 (stereo not drawn) [Example 87, (3-(4-((4-hydroxy-4-methylazepan-1-yl)methyl)phenoxy)azetidin-1-yl)(5-phenyl-1,3,4-oxadiazol-2-yl)methanone] | 8.1 | –
28 | COc1ccc(-c2nnc(C(=O)N3CC(Oc4ccc(CN5CCCC(C)(O)CC5)cc4)C3)o2)cc1 (stereo not drawn) [Example 88, (3-(4-((4-hydroxy-4-methylazepan-1-yl)methyl)phenoxy)azetidin-1-yl)(5-(4-methoxyphenyl)-1,3,4-oxadiazol-2-yl)methanone] | 17 | –
29 | COc1ccc(-c2nnc(C(=O)N3CC(Oc4ccc(CN5CCC(CO)CC5)cc4)C3)o2)cc1 [Example 89, (3-(4-((4-(hydroxymethyl)piperidin-1-yl)methyl)phenoxy)azetidin-1-yl)(5-(4-methoxyphenyl)-1,3,4-oxadiazol-2-yl)methanone] | 22 | –
30 | COc1ccc(-c2nnc(C(=O)N3CC(Oc4ccc(CN5CCC(C)(CO)C5)cc4C)C3)o2)cc1 (stereo not drawn) [Example 90, (3-(4-((3-(hydroxymethyl)-3-methylpyrrolidin-1-yl)methyl)-2-methylphenoxy)azetidin-1-yl)(5-(4-methoxyphenyl)-1,3,4-oxadiazol-2-yl)methanone] | 16 | –
31 | COc1ccc(-c2nnc(C(=O)N3CC(Oc4ccc(CN5CCC(C)(CO)C5)c(C)c4)C3)o2)cc1 (stereo not drawn) [Example 91, (3-(4-((3-(hydroxymethyl)-3-methylpyrrolidin-1-yl)methyl)-3-methylphenoxy)azetidin-1-yl)(5-(4-methoxyphenyl)-1,3,4-oxadiazol-2-yl)methanone] | 11 | –
32 | CCC1(CO)CCN(Cc2ccc(OC3CN(C(=O)c4nnc(-c5ccc(OC)cc5)o4)C3)cc2)CC1 [Example 92, (3-(4-((4-Ethyl-4-(hydroxymethyl)piperidin-1-yl)methyl)phenoxy)azetidin-1-yl)(5-(4-methoxyphenyl)-1,3,4-oxadiazol-2-yl)methanone] | 15 | –
33 | Cc1cc(OC2CN(C(=O)c3nnc(-c4ccccc4)o3)C2)ccc1CN(C1CC1)C1CC1 [[3-[4-[(dicyclopropylamino)methyl]-3-methyl-phenoxy]azetidin-1-yl]-(5-phenyl-1,3,4-oxadiazol-2-yl)methanone] | – | ≥ 100
